Measurements as given in ChEMBL document CHEMBL3871274 (Eur J Med Chem, 2016).
Values belong to the compound of their own block, whether it stands above or below them.

Columns and labels:
[1] = Growth inhibition of human HCT116 cells after 96 hrs by MTS assay; format: functional; conditions: HCT-116, 96 h
[2] = molecular target: T1, Aurora kinase B (Homo sapiens, UniProt Q96GD4)
[3] = molecular target: Aurora kinase C (Homo sapiens, UniProt Q9UQB9); test: Inhibition of human recombinant full-length N-terminal GST-tagged Aurora C (1 to 275 end residues) expressed in baculovirus expression system using GLRRASLG-NH2 as substrate after 20 mins in presence of [gamma-33P]-ATP by liquid scintillation counting
Chain of Aurora kinase C (Q9UQB9 whole entry, the tested form may be a part): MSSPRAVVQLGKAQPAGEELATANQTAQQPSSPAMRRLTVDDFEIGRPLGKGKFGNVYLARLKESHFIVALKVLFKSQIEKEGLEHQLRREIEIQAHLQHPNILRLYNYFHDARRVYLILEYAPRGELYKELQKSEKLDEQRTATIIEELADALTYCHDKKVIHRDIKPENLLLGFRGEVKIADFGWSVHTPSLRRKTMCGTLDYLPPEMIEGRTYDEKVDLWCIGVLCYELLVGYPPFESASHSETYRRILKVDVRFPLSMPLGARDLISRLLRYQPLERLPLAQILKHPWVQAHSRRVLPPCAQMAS

[4] = molecular target: Tyrosine-protein kinase ABL1 (Homo sapiens) (UniProt P00519); test: Inhibition of human recombinant full-length His-tagged ABL1 cytoplasmic domain expressed in baculovirus expression system at 1 uM
[5] = molecular target: T1, Aurora kinase B; test: Inhibition of human recombinant full-length His-tagged Aurora B expressed in baculovirus expression system at 1 uM
[6] = molecular target: Aurora kinase C (Homo sapiens) (UniProt Q9UQB9); test: Inhibition of human recombinant full-length GST-tagged Aurora C expressed in baculovirus expression system at 1 uM
Chain of Aurora kinase C (Homo sapiens) (Q9UQB9 whole entry): as the sequence (Q9UQB9 whole entry, the tested form may be a part) above

[7] = molecular target: Cyclin-dependent kinase 1 (Homo sapiens) (UniProt P06493); test: Inhibition of CDK1 (unknown origin) at 1 uM
Chain of Cyclin-dependent kinase 1 (Homo sapiens) (P06493 whole entry, looked up): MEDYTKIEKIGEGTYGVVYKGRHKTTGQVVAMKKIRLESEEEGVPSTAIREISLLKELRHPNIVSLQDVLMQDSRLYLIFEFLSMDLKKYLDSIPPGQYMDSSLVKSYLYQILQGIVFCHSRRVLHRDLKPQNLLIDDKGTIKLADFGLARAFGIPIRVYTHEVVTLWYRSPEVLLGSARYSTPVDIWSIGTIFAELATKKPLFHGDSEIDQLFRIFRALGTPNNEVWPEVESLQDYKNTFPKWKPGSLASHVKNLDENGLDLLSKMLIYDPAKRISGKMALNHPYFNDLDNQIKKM

[8] = molecular target: Cyclin-dependent kinase 2 (Homo sapiens) (UniProt P24941); test: Inhibition of CDK2 (unknown origin) at 1 uM
[9] = molecular target: Serine/threonine-protein kinase Chk1 (Homo sapiens) (UniProt O14757); test: Inhibition of human recombinant full-length His-tagged CHK1 expressed in baculovirus expression system at 1 uM
[10] = molecular target: Serine/threonine-protein kinase Chk2 (Homo sapiens) (UniProt O96017); test: Inhibition of human recombinant full-length His-tagged CHK2 expressed in baculovirus expression system at 1 uM
[11] = molecular target: Vascular endothelial growth factor receptor 1 (Homo sapiens, UniProt P17948); test: Inhibition of human recombinant GST-tagged FLT1 cytoplasmic domain (781 to 1338 residues) expressed in baculovirus expression system at 1 uM
[12] = molecular target: Receptor-type tyrosine-protein kinase FLT3 (Homo sapiens) (UniProt P36888); test: Inhibition of human recombinant His-tagged FLT3 cytoplasmic domain (564 to 958 residues) expressed in baculovirus expression system at 1 uM
[13] = molecular target: Vascular endothelial growth factor receptor 3 (Homo sapiens, UniProt P35916); test: Inhibition of human recombinant GST-tagged FLT4 cytoplasmic domain (800 to 1297 residues) expressed in baculovirus expression system at 1 uM
[14] = molecular target: Tyrosine-protein kinase JAK1 (Homo sapiens) (UniProt P23458); test: Inhibition of human recombinant GST-tagged JAK1 cytoplasmic domain (866 to 1154 residues) expressed in baculovirus expression system at 1 uM
[15] = molecular target: Vascular endothelial growth factor receptor 2 (Homo sapiens, UniProt P35968); test: Inhibition of human recombinant His-tagged KDR cytoplasmic domain (789 to 1356 residues) expressed in baculovirus expression system at 1 uM
[16] = molecular target: Mast/stem cell growth factor receptor Kit (Homo sapiens) (UniProt P10721); test: Inhibition of human recombinant His-tagged KIT cytoplasmic domain (544 to 976 residues) expressed in baculovirus expression system at 1 uM
[17] = molecular target: High affinity nerve growth factor receptor (Homo sapiens) (UniProt P04629); test: Inhibition of human recombinant His-tagged NTRK1 cytoplasmic domain (441 to 796 residues) expressed in baculovirus expression system at 1 uM
[18] = molecular target: Platelet-derived growth factor receptor alpha (Homo sapiens) (UniProt P16234); test: Inhibition of human recombinant GST-tagged PDGFRalpha cytoplasmic domain (550 to 1089 residues) expressed in baculovirus expression system at 1 uM
[19] = molecular target: Platelet-derived growth factor receptor beta (Homo sapiens) (UniProt P09619); test: Inhibition of human recombinant His-tagged PDGFRbeta cytoplasmic domain (558 to 1106 residues) expressed in baculovirus expression system at 1 uM
Chain of Platelet-derived growth factor receptor beta (Homo sapiens) (P09619 whole entry, the tested form may be a part): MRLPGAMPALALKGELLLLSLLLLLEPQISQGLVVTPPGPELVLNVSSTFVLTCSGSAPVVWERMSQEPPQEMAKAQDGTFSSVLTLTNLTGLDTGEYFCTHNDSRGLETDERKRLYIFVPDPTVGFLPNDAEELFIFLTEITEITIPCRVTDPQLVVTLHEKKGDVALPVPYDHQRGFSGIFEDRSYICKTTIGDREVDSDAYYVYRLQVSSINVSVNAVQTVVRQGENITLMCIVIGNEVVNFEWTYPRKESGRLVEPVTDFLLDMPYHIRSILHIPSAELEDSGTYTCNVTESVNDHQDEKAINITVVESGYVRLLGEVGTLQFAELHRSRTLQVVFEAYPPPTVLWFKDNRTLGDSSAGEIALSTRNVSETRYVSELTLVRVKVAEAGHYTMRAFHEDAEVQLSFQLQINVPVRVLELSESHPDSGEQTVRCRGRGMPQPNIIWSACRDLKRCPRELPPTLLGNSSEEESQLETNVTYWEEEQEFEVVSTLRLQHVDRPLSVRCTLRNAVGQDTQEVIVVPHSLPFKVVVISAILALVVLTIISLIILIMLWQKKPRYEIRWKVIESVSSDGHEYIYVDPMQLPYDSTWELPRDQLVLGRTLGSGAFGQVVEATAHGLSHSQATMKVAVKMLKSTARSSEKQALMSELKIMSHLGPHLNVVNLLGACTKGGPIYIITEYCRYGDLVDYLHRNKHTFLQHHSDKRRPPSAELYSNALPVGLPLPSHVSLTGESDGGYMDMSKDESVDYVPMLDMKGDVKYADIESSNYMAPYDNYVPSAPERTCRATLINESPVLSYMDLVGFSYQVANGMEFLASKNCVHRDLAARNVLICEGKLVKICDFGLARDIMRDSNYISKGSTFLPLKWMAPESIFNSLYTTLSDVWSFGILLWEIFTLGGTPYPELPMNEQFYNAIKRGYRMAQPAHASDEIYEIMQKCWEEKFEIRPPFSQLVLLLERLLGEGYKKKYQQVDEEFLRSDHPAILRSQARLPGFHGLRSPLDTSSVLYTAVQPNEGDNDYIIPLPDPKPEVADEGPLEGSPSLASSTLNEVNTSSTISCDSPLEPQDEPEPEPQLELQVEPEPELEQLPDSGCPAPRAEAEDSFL

[20] = molecular target: Phosphatidylinositol 4-phosphate 3-kinase C2 domain-containing subunit alpha (Homo sapiens) (UniProt O00443); test: Inhibition of human recombinant N-terminal GST-tagged PIK3C2A catalytic domain expressed in baculovirus expression system at 1 uM
[21] = molecular target: Phosphatidylinositol 4-phosphate 3-kinase C2 domain-containing subunit beta (Homo sapiens) (UniProt O00750); test: Inhibition of human recombinant N-terminal GST-tagged PIK3C2B (155 to 1383 residues) catalytic domain expressed in baculovirus expression system at 1 uM
Chain of Phosphatidylinositol 4-phosphate 3-kinase C2 domain-containing subunit beta (Homo sapiens) (O00750 whole entry, the tested form may be a part): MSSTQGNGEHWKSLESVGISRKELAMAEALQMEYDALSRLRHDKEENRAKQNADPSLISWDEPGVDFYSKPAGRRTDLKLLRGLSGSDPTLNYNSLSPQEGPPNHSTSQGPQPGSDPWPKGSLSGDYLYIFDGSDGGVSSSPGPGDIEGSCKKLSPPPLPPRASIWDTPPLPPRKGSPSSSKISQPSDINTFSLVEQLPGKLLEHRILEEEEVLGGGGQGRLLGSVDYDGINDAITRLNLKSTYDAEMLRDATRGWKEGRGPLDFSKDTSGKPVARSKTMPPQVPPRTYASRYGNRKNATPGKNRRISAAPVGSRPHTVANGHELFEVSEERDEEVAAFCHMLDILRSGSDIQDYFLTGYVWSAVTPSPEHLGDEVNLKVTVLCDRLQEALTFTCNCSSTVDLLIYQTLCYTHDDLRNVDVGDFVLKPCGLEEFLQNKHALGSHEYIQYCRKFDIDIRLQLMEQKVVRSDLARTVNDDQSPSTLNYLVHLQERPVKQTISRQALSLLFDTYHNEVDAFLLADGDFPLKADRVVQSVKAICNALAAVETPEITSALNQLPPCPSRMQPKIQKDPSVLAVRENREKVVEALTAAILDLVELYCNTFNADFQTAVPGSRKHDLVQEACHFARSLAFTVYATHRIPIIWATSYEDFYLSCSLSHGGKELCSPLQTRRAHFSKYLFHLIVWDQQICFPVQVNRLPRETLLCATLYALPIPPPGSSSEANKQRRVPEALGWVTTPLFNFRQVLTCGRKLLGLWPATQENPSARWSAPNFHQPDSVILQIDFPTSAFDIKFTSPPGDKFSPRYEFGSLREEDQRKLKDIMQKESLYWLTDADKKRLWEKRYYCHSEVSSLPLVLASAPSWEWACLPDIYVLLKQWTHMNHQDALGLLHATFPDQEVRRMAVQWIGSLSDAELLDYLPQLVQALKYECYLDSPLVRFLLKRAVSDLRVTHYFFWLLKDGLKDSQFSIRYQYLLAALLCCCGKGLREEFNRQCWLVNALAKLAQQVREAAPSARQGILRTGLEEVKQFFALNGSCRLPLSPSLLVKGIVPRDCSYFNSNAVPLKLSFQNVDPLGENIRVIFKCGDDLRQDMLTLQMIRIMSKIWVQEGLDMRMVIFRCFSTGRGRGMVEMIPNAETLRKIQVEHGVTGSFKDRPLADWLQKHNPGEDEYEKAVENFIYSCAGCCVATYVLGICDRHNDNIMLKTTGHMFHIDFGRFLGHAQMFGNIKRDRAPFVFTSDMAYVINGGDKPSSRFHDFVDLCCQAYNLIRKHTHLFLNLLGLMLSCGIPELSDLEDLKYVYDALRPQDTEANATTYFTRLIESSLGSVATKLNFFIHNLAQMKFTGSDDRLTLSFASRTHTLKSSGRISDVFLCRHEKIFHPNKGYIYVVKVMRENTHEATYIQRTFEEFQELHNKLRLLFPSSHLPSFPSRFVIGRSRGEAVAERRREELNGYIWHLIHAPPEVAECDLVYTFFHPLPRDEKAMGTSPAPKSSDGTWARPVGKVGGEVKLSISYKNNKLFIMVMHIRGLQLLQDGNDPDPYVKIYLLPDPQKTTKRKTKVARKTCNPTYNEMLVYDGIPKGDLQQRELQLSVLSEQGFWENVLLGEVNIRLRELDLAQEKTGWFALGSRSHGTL

[22] = molecular target: Rho-associated protein kinase 1 (Homo sapiens) (UniProt Q13464); test: Inhibition of human recombinant GST-tagged ROCK1 catalytic domain (1 to 535 residues) expressed in baculovirus expression system at 1 uM
Chain of Rho-associated protein kinase 1 (Homo sapiens) (Q13464 2-1354 limits assumed): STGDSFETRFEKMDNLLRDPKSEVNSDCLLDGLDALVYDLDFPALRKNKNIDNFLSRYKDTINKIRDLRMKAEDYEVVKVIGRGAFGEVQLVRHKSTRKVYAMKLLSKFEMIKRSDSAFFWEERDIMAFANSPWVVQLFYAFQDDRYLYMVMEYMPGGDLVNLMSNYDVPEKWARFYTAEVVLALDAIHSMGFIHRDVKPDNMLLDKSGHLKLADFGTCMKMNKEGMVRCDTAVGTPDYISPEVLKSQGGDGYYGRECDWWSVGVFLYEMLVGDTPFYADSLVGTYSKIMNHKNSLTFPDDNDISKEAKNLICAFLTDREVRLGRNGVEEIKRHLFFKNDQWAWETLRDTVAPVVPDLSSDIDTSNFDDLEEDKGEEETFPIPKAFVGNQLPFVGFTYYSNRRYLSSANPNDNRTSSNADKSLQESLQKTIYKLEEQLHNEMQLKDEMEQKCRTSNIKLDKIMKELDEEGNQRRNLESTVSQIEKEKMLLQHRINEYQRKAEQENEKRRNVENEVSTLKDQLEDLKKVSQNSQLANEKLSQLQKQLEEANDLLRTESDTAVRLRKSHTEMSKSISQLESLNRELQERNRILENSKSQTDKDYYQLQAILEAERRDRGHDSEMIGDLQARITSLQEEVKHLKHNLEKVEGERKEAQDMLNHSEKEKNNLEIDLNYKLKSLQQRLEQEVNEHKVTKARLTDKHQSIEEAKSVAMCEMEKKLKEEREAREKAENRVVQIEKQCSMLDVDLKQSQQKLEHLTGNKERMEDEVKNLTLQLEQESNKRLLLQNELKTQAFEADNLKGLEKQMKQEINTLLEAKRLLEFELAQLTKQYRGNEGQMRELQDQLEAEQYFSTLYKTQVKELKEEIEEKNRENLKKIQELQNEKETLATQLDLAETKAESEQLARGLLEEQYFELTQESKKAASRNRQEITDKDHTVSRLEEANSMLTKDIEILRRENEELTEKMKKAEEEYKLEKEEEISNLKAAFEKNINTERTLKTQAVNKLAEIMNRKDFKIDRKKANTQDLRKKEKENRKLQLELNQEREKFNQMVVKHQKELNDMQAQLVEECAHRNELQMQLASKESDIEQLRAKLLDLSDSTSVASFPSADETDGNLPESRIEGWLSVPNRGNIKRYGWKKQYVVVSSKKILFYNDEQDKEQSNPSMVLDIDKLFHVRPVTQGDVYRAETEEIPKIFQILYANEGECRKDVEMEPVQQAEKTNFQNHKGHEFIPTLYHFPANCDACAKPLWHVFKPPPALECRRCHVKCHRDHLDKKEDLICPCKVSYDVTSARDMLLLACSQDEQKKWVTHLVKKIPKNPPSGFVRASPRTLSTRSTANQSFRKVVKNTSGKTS

[23] = molecular target: Proto-oncogene tyrosine-protein kinase receptor Ret (Homo sapiens) (UniProt P07949); test: Inhibition of human recombinant GST-tagged RET cytoplasmic domain (658 to 1114 residues) expressed in baculovirus expression system at 1 uM
[24] = molecular target: Rho-associated protein kinase 2 (Homo sapiens) (UniProt O75116); test: Inhibition of human recombinant N-terminal GST-tagged ROCK2 catalytic domain (1 to 552 residues) expressed in baculovirus expression system at 1 uM
[25] = molecular target: Angiopoietin-1 receptor (Homo sapiens) (UniProt Q02763); test: Inhibition of human recombinant GST-tagged TEK cytoplasmic domain (817 to 1101 residues) expressed in baculovirus expression system at 1 uM
[26] = molecular target: Dual specificity protein kinase TTK (Homo sapiens) (UniProt P33981); test: Inhibition of human recombinant full-length GST-tagged TTK expressed in baculovirus expression system at 1 uM

T1 sequence (Q96GD4 whole entry): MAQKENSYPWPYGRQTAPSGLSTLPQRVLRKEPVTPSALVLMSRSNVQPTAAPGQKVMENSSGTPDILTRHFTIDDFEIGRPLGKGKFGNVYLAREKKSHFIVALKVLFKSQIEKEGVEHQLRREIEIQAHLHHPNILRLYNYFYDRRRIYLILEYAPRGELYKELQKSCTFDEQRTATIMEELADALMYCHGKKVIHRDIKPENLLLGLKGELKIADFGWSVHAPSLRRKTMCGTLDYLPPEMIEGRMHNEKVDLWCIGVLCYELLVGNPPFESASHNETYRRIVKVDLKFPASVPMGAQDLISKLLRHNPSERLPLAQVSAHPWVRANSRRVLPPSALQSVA

Structure (SMILES): CC(C)(C)c1ccc(S(=O)(=O)Nc2ccc3[nH]nc(-c4cccc(NC(=O)/C=C\C(=O)O)c4)c3c2)cc1
GI50 [1]: > 20000 nM

IC50 [2]: 48 nM
Structure (SMILES): COC(=O)CCC(=O)Nc1cccc(-c2n[nH]c3ccc(NS(=O)(=O)c4ccccc4)cc23)c1
GI50 [1]: 12000 nM

IC50 [2]: 31 nM
Structure (SMILES): COc1ccc(S(=O)(=O)Nc2ccc3[nH]nc(-c4cccc(NC(=O)/C=C\C(=O)O)c4)c3c2)cc1
GI50 [1]: > 20000 nM

IC50 [3]: 12 nM
Structure (SMILES): O=C(O)[C@]1(Cc2cccc(Nc3nccs3)n2)CC[C@@H](Oc2cccc(Cl)c2F)CC1 [MK-5108]

Structure (SMILES): O=C(O)/C=C\C(=O)Nc1cccc(-c2n[nH]c3ccc(NS(=O)(=O)c4ccccc4)cc23)c1
GI50 [1]: > 20000 nM | inhibition [4]: 31% | inhibition [5]: 89% | inhibition [6]: 94% | inhibition [7]: 21% | inhibition [8]: 17% | inhibition [9]: 16% | inhibition [10]: 8% | inhibition [11]: 1% | inhibition [12]: 85% | inhibition [13]: 64% | inhibition [14]: 39% | inhibition [15]: 48% | inhibition [16]: -4% | inhibition [17]: 58% | inhibition [18]: 24% | inhibition [19]: -2% | inhibition [20]: 1% | inhibition [21]: 20% | inhibition [22]: 10% | inhibition [23]: 61% | inhibition [24]: 8% | inhibition [25]: 48% | inhibition [26]: 93% | IC50 [2]: 15 nM

Structure (SMILES): O=C(O)/C=C/C(=O)Nc1cccc(-c2n[nH]c3ccc(NS(=O)(=O)c4ccccc4)cc23)c1
GI50 [1]: > 20000 nM

Structure (SMILES): O=C(O)/C=C\C(=O)Nc1cccc(-c2n[nH]c3ccc(NS(=O)(=O)c4ccc(-c5ccccc5)cc4)cc23)c1
GI50 [1]: > 20000 nM

IC50 [2]: 220 nM
Structure (SMILES): CC(C)OC(=O)CCC(=O)Nc1cccc(-c2n[nH]c3ccc(NS(=O)(=O)c4ccccc4)cc23)c1
GI50 [1]: > 20000 nM

IC50 [2]: 28 nM
Structure (SMILES): O=C(O)CCC(=O)Nc1cccc(-c2n[nH]c3ccc(NS(=O)(=O)c4ccccc4)cc23)c1
GI50 [1]: > 20000 nM

IC50 [2]: 32 nM
Structure (SMILES): Cc1ccc(S(=O)(=O)Nc2ccc3[nH]nc(-c4cccc(NC(=O)/C=C\C(=O)O)c4)c3c2)cc1
GI50 [1]: > 20000 nM

IC50 [2]: > 1000 nM
Structure (SMILES): CC#CC(=O)Nc1cccc(-c2n[nH]c3ccc(NS(=O)(=O)c4ccccc4)cc23)c1
GI50 [1]: 3600 nM

IC50 [2]: 49 nM
Structure (SMILES): NC(=O)CCC(=O)Nc1cccc(-c2n[nH]c3ccc(NS(=O)(=O)c4ccccc4)cc23)c1
GI50 [1]: > 20000 nM

IC50 [2]: 64 nM
Structure (SMILES): CCOC(=O)CCC(=O)Nc1cccc(-c2n[nH]c3ccc(NS(=O)(=O)c4ccccc4)cc23)c1
GI50 [1]: 1900 nM

IC50 [2]: 26 nM
Structure (SMILES): O=C(O)/C=C\C(=O)Nc1cccc(-c2n[nH]c3ccc(NS(=O)(=O)c4ccc([N+](=O)[O-])cc4)cc23)c1
GI50 [1]: > 20000 nM

IC50 [2]: 30 nM
Structure (SMILES): O=C(O)/C=C\C(=O)Nc1cccc(-c2n[nH]c3ccc(NS(=O)(=O)c4ccc(F)cc4)cc23)c1
GI50 [1]: > 20000 nM
